The CheMixHub ionic liquid set

Test: xn = mol fraction of the nth substance listed

CCOC(C)=O + CCCC[n+]1ccn(C)c1.O=S(=O)([O-])C(F)(F)F
Settings | viscosity [mPa·s]
298.15 K, 100 kPa, x2 = 0 | 0.42

CCCC[n+]1ccn(C)c1.O=S(=O)([N-]S(=O)(=O)C(F)(F)F)C(F)(F)F + CCCCCCO
Settings | viscosity [mPa·s]
298 K, 100 kPa, x1 = 1 | 49.7

CCCC[n+]1ccn(C)c1.F[P-](F)(F)(F)(F)F + CCCC[n+]1ccn(C)c1.F[B-](F)(F)F
101 kPa
Settings | viscosity [mPa·s]
298.15 K, x1 = 0.1034 | 116.1
298.15 K, x1 = 0.833 | 227
298.15 K, x1 = 0.8877 | 237
299.15 K, x1 = 0.1034 | 110.2
299.15 K, x1 = 0.2095 | 121.3
299.15 K, x1 = 1 | 259
301.15 K, x1 = 0.0568 | 91.6
301.15 K, x1 = 0.1034 | 99.5
301.15 K, x1 = 1 | 232
302.15 K, x1 = 0.0568 | 87.1
302.15 K, x1 = 0.3825 | 118.8
302.15 K, x1 = 0.4647 | 124.4
303.15 K, x1 = 0.0568 | 82.9
305.15 K, x1 = 0.6928 | 136.5
305.15 K, x1 = 0.945 | 166.1
307.15 K, x1 = 0.3825 | 92.5
307.15 K, x1 = 0.833 | 136.1
307.15 K, x1 = 0.945 | 149.7
308.15 K, x1 = 0.2095 | 77.4
308.15 K, x1 = 0.3825 | 88.1
308.15 K, x1 = 0.5385 | 98.8
308.15 K, x1 = 1 | 156

CCCC[n+]1ccn(C)c1.F[P-](F)(F)(F)(F)F + OC[C@H]1O[C@H](O[C@H]2[C@H](O)[C@@H](O)C(O)O[C@@H]2CO)[C@H](O)[C@@H](O)[C@@H]1O + O
viscosity [mPa·s], 100 kPa
Settings | 293.15 K | 298.15 K | 303.15 K | 308.15 K | 313.15 K
x1 = 0.0001838, x2 = 0 | 1.011 | 0.905 | 0.821 | 0.742 | 0.661
x1 = 0.0005385, x2 = 0 | 1.025 | 0.916 | 0.826 | 0.744 | 0.674
x1 = 0.0008966, x2 = 0 | 1.038 | 0.922 | 0.83 | 0.75 | 0.677
x1 = 0.001262, x2 = 0 | 1.041 | 0.932 | 0.843 | 0.761 | 0.683

CCCCCCCC/C=C\CCCCCCCC(=O)O + Cc1ccccc1 + CC[N+](CC)(CC)CC.[Cl-]
298.2 K, 100 kPa
Settings | viscosity [mPa·s]
x2 = 0, x3 = 0.25 | 202
x2 = 0.2, x3 = 0.2 | 39
x2 = 0.4, x3 = 0.149 | 10.8
x2 = 0.6, x3 = 0.1 | 3.19
x2 = 0.8, x3 = 0.05 | 0.91

CCCCCCCCCC[n+]1ccn(C)c1.[Br-] + O
electrical conductivity [S/m], 101 kPa
Settings | 296 K | 301 K | 306 K | 311 K | 316 K
x1 = 0.0001622 | – | – | – | – | 0.0606
x1 = 0.0002342 | – | – | – | – | 0.0892
x1 = 0.0002522 | 0.0652 | – | – | 0.0827 | –
x1 = 0.0003423 | 0.0864 | – | 0.1 | 0.107 | 0.117
x1 = 0.0003603 | – | 0.0919 | – | – | –
x1 = 0.0004503 | 0.102 | 0.11 | 0.118 | 0.131 | 0.14
x1 = 0.0005763 | 0.125 | 0.134 | 0.141 | 0.155 | 0.168
x1 = 0.0007023 | 0.141 | 0.152 | 0.162 | 0.175 | 0.191
x1 = 0.0008462 | – | 0.172 | – | – | 0.223
x1 = 0.0008642 | 0.163 | – | 0.188 | 0.202 | –
x1 = 0.001026 | 0.176 | 0.186 | 0.205 | 0.221 | 0.248
x1 = 0.001206 | 0.195 | 0.204 | 0.223 | 0.243 | 0.272
x1 = 0.001422 | 0.205 | 0.22 | 0.237 | 0.254 | 0.291
x1 = 0.001673 | 0.216 | 0.23 | 0.257 | 0.271 | 0.309
x1 = 0.00196 | 0.234 | 0.24 | 0.263 | 0.28 | 0.323
x1 = 0.002301 | – | – | 0.274 | 0.293 | 0.34
x1 = 0.002319 | – | 0.251 | – | – | –

298.15 K, 100 kPa, frequency 5e-05 MHz
Settings | electrical conductivity [S/m]
x1 = 0.0003459 | 0.175
x1 = 0.0003945 | 0.199
x1 = 0.0004629 | 0.235
x1 = 0.0004917 | 0.249
x1 = 0.0005259 | 0.265
x1 = 0.0005781 | 0.289
x1 = 0.0006231 | 0.31
x1 = 0.0006537 | 0.325
x1 = 0.0006861 | 0.34
x1 = 0.0007311 | 0.36
x1 = 0.0007563 | 0.37
x1 = 0.0007922 | 0.374
x1 = 0.0009038 | 0.387
x1 = 0.000938 | 0.391
x1 = 0.0009775 | 0.395
x1 = 0.001044 | 0.403
x1 = 0.001082 | 0.407
x1 = 0.001118 | 0.41
x1 = 0.001152 | 0.414
x1 = 0.001206 | 0.422
